Earlier results, collected in patent publication US20170157095A1, “ALLISARTAN ISOPROXIL SOLID DISPERSION AND PHARMACEUTICAL COMPOSITION” (SHENZHEN SALUBRIS PHARMACEUTICALS CO., LTD, priority 2014, published 2017).

solubility in water: low
Structure (SMILES): CCCCc1nc(Cl)c(C(=O)OCOC(=O)OC(C)C)n1Cc1ccc(-c2ccccc2-c2nnn[nH]2)cc1 [Allisartan isoproxil, 2-butyl-4-chloro-1-[2′-(1H-tetrazol-5-yl)-1,1′-biphenyl-methyl]-imidazole-5-carboxylic acid, 1-[(isopropoxy)-carbonyloxy]-methyl ester]
